In PubChem BioAssay AID1963844 (Molecular Pharmacology Branch, DTP, NCI, 2024):

Tested on: 422866-222-R5-J1-PDC complex spheroid viability
Assay: Anticancer human tumor 422866-222-R5-J1-PDC patient-derived pancreatic adenocarcinoma cell line growth inhibition [POLQ]
Conditions: for IC50: curve of first compound; for viability, T/C: stronger effect = lower value
Method in brief: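 Patient-derived tumour cells were co-cultured with HUVEC and mesenchymal stem cells as multicellular spheroids at 37 °C. They were treated with POLQ inhibitors (novobiocin, ART-558, RP6685) alone or combined with other agents. Top concentrations were at or near clinical Cmax (otherwise 10 microM; SN-38 at 1 microM), decreasing in half-log steps.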

[1] = second compound 0.0316 µM, first compound 0.0316 µM
[2] = second compound 0.0316 µM, first compound 0.1 µM
[3] = second compound 0.0316 µM, first compound 0.316 µM
[4] = second compound 0.0316 µM, first compound 1 µM
[5] = second compound 0.0316 µM, first compound 3.16 µM
[6] = second compound 0.0316 µM, first compound 10 µM
[7] = second compound 0.1 µM, first compound 0.0316 µM
[8] = second compound 0.1 µM, first compound 0.1 µM
[9] = second compound 0.1 µM, first compound 0.316 µM
[10] = second compound 0.1 µM, first compound 1 µM
[11] = second compound 0.1 µM, first compound 3.16 µM
[12] = second compound 0.1 µM, first compound 10 µM
[13] = second compound 0.316 µM, first compound 0.0316 µM
[14] = second compound 0.316 µM, first compound 0.1 µM
[15] = second compound 0.316 µM, first compound 0.316 µM
[16] = second compound 0.316 µM, first compound 1 µM
[17] = second compound 0.316 µM, first compound 3.16 µM
[18] = second compound 0.316 µM, first compound 10 µM
[19] = second compound 1 µM, first compound 0.0316 µM
[20] = second compound 1 µM, first compound 0.1 µM
[21] = second compound 1 µM, first compound 0.316 µM
[22] = second compound 1 µM, first compound 1 µM
[23] = second compound 1 µM, first compound 3.16 µM
[24] = second compound 1 µM, first compound 10 µM
[25] = second compound 3.16 µM, first compound 0.0316 µM
[26] = second compound 3.16 µM, first compound 0.1 µM
[27] = second compound 3.16 µM, first compound 0.316 µM
[28] = second compound 3.16 µM, first compound 1 µM
[29] = second compound 3.16 µM, first compound 3.16 µM
[30] = second compound 3.16 µM, first compound 10 µM
[31] = second compound 10 µM, first compound 0.0316 µM
[32] = second compound 10 µM, first compound 0.1 µM
[33] = second compound 10 µM, first compound 0.316 µM
[34] = second compound 10 µM, first compound 1 µM
[35] = second compound 10 µM, first compound 3.16 µM
[36] = second compound 10 µM, first compound 10 µM
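Also: spheroids exposed to compounds for one week before readout.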
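For viability, T/C in this document: percent of DMSO vehicle wells luminescence so 100% = untreated viability.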

Compound: O=C(Nc1ccc(O)c(NS(=O)(=O)c2ccc(F)cc2)c1)c1ccc(-c2ccccc2)cc1 + COC1C(OC(N)=O)C(O)C(Oc2ccc3c(O)c(NC(=O)c4ccc(O)c(CC=C(C)C)c4)c(=O)oc3c2C)OC1(C)C
- IC50 (second compound 0.0316 µM): > 10 µM
- IC50 (second compound 0.1 µM): > 10 µM
- IC50 (second compound 0.316 µM): > 10 µM
- IC50 (second compound 1 µM): > 10 µM
- IC50 (second compound 3.16 µM): > 10 µM
- IC50 (second compound 10 µM): > 10 µM
- viability, T/C [1]: 99.6%
- viability, T/C [2]: 101%
- viability, T/C [3]: 77.7%
- viability, T/C [4]: 94.6%
- viability, T/C [5]: 96.1%
- viability, T/C [6]: 126%
- viability, T/C [7]: 92.2%
- viability, T/C [8]: 87.3%
- viability, T/C [9]: 83.3%
- viability, T/C [10]: 95.2%
- viability, T/C [11]: 88.8%
- viability, T/C [12]: 133%
- viability, T/C [13]: 92.4%
- viability, T/C [14]: 88%
- viability, T/C [15]: 84%
- viability, T/C [16]: 99.5%
- viability, T/C [17]: 93%
- viability, T/C [18]: 123%
- viability, T/C [19]: 106%
- viability, T/C [20]: 95%
- viability, T/C [21]: 83.7%
- viability, T/C [22]: 84.9%
- viability, T/C [23]: 97.7%
- viability, T/C [24]: 125%
- viability, T/C [25]: 93.8%
- viability, T/C [26]: 100%
- viability, T/C [27]: 103%
- viability, T/C [28]: 89.2%
- viability, T/C [29]: 103%
- viability, T/C [30]: 124%
- viability, T/C [31]: 95.8%
- viability, T/C [32]: 80.9%
- viability, T/C [33]: 87.4%
- viability, T/C [34]: 85%
- viability, T/C [35]: 96.4%
- viability, T/C [36]: 133%

Compound: COc1cc2cc(C(=O)CCC(=O)O)sc2cc1OC + Cc1cccc(N(C)C(=O)C2C(O)CCN2c2nc(C)cc(C(F)(F)F)c2C#N)c1
- IC50 (second compound 0.0316 µM): > 10 µM
- IC50 (second compound 0.1 µM): > 10 µM
- IC50 (second compound 0.316 µM): > 10 µM
- IC50 (second compound 1 µM): > 10 µM
- IC50 (second compound 3.16 µM): > 10 µM
- IC50 (second compound 10 µM): > 10 µM
- viability, T/C [1]: 95.6%
- viability, T/C [2]: 106%
- viability, T/C [3]: 98.6%
- viability, T/C [4]: 90.5%
- viability, T/C [5]: 85.4%
- viability, T/C [6]: 103%
- viability, T/C [7]: 101%
- viability, T/C [8]: 91.1%
- viability, T/C [9]: 82.6%
- viability, T/C [10]: 101%
- viability, T/C [11]: 75.5%
- viability, T/C [12]: 121%
- viability, T/C [13]: 116%
- viability, T/C [14]: 90.3%
- viability, T/C [15]: 91.8%
- viability, T/C [16]: 93.4%
- viability, T/C [17]: 93.7%
- viability, T/C [18]: 116%
- viability, T/C [19]: 94.9%
- viability, T/C [20]: 113%
- viability, T/C [21]: 98.2%
- viability, T/C [22]: 80.3%
- viability, T/C [23]: 87.9%
- viability, T/C [24]: 117%
- viability, T/C [25]: 107%
- viability, T/C [26]: 101%
- viability, T/C [27]: 109%
- viability, T/C [28]: 93.1%
- viability, T/C [29]: 85.7%
- viability, T/C [30]: 121%
- viability, T/C [31]: 88.6%
- viability, T/C [32]: 93%
- viability, T/C [33]: 103%
- viability, T/C [34]: 75.2%
- viability, T/C [35]: 79.6%
- viability, T/C [36]: 112%
